Results as given in patent US4004976A, “Process for recovering the main sapogenins from the roots of rhizomes of helleborus” (Deutsche Gold- und Silber-Scheideanstalt vormals Roessler, priority 1974, dated 1977).

What was measured:
central nervous system = test: Muscle relaxing and central nervous system influencing activity; conditions: in words, no test described
[1] = Acute toxicity, LD 50 (method of Miller and Tainter); conditions: in vivo; mouse, oral application
Experimental: The acute toxicity of the compound of the invention in the mouse (expressed by LD 50 mg/kg; method of Miller and Tainter; Proc. Soc. Exper. Biol. a. Med. Vol. 57 (1944) pages 261 et seq.) on oral application, for example, is above 6000 mg/kg.

[2] = system: indometacin ulcer of rats; test: Indometacin ulcer of rats (method of John and Adrian modified by Wilhelmi), ulcer protecting effect; assay type: in vivo, rat (albino rats of the strain SIV 50); conditions: for Ulcer Protecting Effect: oral, 1 h after indometacin 20 mg/kg, evaluated 24 h after indometacin
Experimental: These tests were carried out according to the method of John and Adrian modified by Wilhelmi on the indometacin ulcer of rats (see Arneimittelforschung Vol. 19 (1969) pages 45 et seq.)
The determination is carried out in the following manner.
Albino rats of the strain SIV 50 (S. Ivanovas, Kisslegg/Allgau) having an initial weight of 250 to 300 grams were held in controlled temperature rooms at 20° to 22° C. in wire cages (Ebeco, Type 3 double width) on a standard diet (Altromin). After 48-hour feeding intervals the animals received 20 mg/kg rat of indometacin in 1.5% tragacanth (1 ml tragacanth solution per 100 grams of rat) applied intragastrally.
One hour after giving the indometacin there was dispensed orally to the animals the test substance. The rats remain otherwise fasting (water ad libitum).
Twenty-four hours after giving the indometacin the animals were killed with CO2. The stomach was resected, opened along the great curvature and washed under flowing water.
The ulcerative changes appear as dark, point or stria shaped spots on the mucosa. The evaluation was done according to the method of Munchow, Arneimittelforschung Vol. 4 (1954) pages 341-344.

## C=C1CC[C@@]2(OC1)O[C@H]1C[C@H]3[C@@H]4CC=C5C[C@@H](O)C[C@@H](O)[C@]5(C)[C@H]4[C@H](O)C[C@]3(C)[C@H]1[C@@H]2C [compound of the invention, spiro-5,25(27)-diene-1β,3β,11α-triol]
Central nervous system
  muscle relaxing and central nervous system influencing activity: muscle relaxing and central nervous system influencing activity has been established
[1]
  LD50: > 6000 mg/kg
[2]; Daily Dosage 50 mg/kg, rat
  Ulcer Protecting Effect: 58%
[2]; Daily Dosage 100 mg/kg, rat
  Ulcer Protecting Effect: 78%
[2]; Daily Dosage 200 mg/kg, rat
  Ulcer Protecting Effect: 80%
[2]; in words
  ulcer healing activity: has an ulcer healing activity
[2]; indometacin ulcers of rats, in words
  antiulcer activity: good antiulcer activity
[2]; po, 24 h, orally, indometacin ulcer, rat, read-out: lowest effective dosage
  minimal effective dose: 50 mg/kg
[2]; versus known medicine Biogastrone, in words
  antiulcer activity compared with Biogastrone: comparable to the activity of the known medicine Biogastrone
